# Several values for one entry are separate records, joined by “and”; a condition that tells them apart may be missing. Equal values may be shown once. Where a SMILES comes first, the peptide text is derived from it. [ ]: non-standard residue; d: D form. Hyp = O=C(O)[C@@H]1C[C@@H](O)CN1
# Tested on: CCL3/MIP-1 alpha
# Experiment: Example 8 main study Luminex, LPS hPBMCs: CCL3/MIP-1 alpha
# Type: cell-based, human
# Conditions: for LPS-induced CCL-3 (in words): at as low as 5 μM, LPS 5 ug/mL 24 hrs
# Method: Human PBMCs were pretreated with YY-101, YDE-011, YDE-043 or reference compound; Xiidra® at various concentration (ranging from […] to 500 nM) for 2 h before stimulation. An equal volume of 0.5% DMSO was used as a vehicle control. Then, the cells were treated with LPS at 5 ug/ml, which was selected based on the pilot study. The supernatants from treated cells were harvested at 24 h and placed in a 96 well for Luminex cytokine & chemokine profiling using a Luminex 200 multiplex assay (Luminex; R&D system, USA).
# The main study arm with triplicate wells per group in a 24-well plate: • 1. Blank • 2. PBMC: 0.5% DMSO • 3. PBMC+LPS (5 ug/ml) • 4. PBMC+YY-101 500 nM • 5. PBMC+YY-101 50 nM • 6. PBMC+YY-101 5 nM • 7. PBMC+YY-101 0.5 nM • 8. PBMC+LPS (5 ug/ml)+Xiidra® 500 nM • 9. PBMC+LPS (5 ug/ml)+Xiidra® 50 nM • 10. PBMC+LPS (5 ug/ml)+Xiidra® 5 nM • 11. PBMC+LPS (5 ug/ml)+Xiidra® 0.5 nM • 12. PBMC+LPS (5 ug/ml)+Xiidra® 0.05 nM • 13. PBMC+LPS (5 ug/ml)+Xiidra® 0.005 nM • 14. PBMC+LPS (5 ug/ml)+YY-101 500 nM • 15. PBMC+LPS (5 ug/ml)+YY-101 50 nM • 16. PBMC+LPS (5 ug/ml)+YY-101 5 nM • 17. PBMC+LPS (5 ug/ml)+YY-101 0.5 nM • 18. PBMC+LPS (5 ug/ml)+YY-101 0.05 nM • 19. PBMC+LPS (5 ug/ml)+YY-101 0.005 nM • 20. PBMC+LPS (5 ug/ml)+YDE-011 500 nM • 21. PBMC+LPS (5 ug/ml)+YDE-011 50 nM • 22. PBMC+LPS (5 ug/ml)+YDE-011 5 nM • 23. PBMC+LPS (5 ug/ml)+YDE-011 0.5 nM • 24. PBMC+LPS (5 ug/ml)+YDE-011 0.05 nM • 25. PBMC+LPS (5 ug/ml)+YDE-011 0.005 nM • 26. PBMC+LPS (5 ug/ml)+YDE-043 500 nM • 27. PBMC+LPS (5 ug/ml)+YDE-043 50 nM • 28. PBMC+LPS (5 ug/ml)+YDE-043 5 nM • 29. PBMC+LPS (5 ug/ml)+YDE-043 0.5 nM • 30. PBMC+LPS (5 ug/ml)+YDE-043 0.05 nM • 31. PBMC+LPS (5 ug/ml)+YDE-043 0.005 nM
# Multiplex assay was used to measure 30 cytokines and chemokines. The 1:200 diluted cell supernatant and serial dilution of the standard were dispensed into a 96 well plate at 50 ul/well. Then, the pre-mixed cocktail of antibody-coated magnetic beads was dispensed at 50 ul/well and incubated at room temperature for 2 h in a horizontal orbital microplate shaker at 800±500 rpm. The beads were washed using a magnetic device to prevent loss. The biotin-antibody was dispensed in 50 ul of each well and incubated at room temperature for 1 h in a shaker at 800±500 rpm. After washing, streptavidin-PE was added at 50 ul/well and incubated at room temperature for 30 min in a shaker under the same conditions. Finally, after washing, wash buffer (100 ul/well) was added to the plate and incubated in a shaker for 2 min. The Luminex™ 200 setting were set according to the manufacturer's protocol. The data was calculated with a standard five-parameter logistic nonlinear regression analysis of the data (xPonent software 4.2, USA). Results were presented as concentration (ng/ml or pg/ml).
# [1] = PBMC + LPS(5 ug/ml) + test article 0.005 nM, Mean
# [2] = PBMC + LPS(5 ug/ml) + test article 0.005 nM, single replicates
# [3] = PBMC + LPS(5 ug/ml) + test article 0.05 nM, Mean
# [4] = PBMC + LPS(5 ug/ml) + test article 0.05 nM, single replicates
# [5] = PBMC + LPS(5 ug/ml) + test article 0.5 nM, Mean
# [6] = PBMC + LPS(5 ug/ml) + test article 0.5 nM, single replicates
# [7] = PBMC + LPS(5 ug/ml) + test article 5 nM, Mean
# [8] = PBMC + LPS(5 ug/ml) + test article 5 nM, single replicates
# [9] = PBMC + LPS(5 ug/ml) + test article 50 nM, Mean
# [10] = PBMC + LPS(5 ug/ml) + test article 50 nM, single replicates
# [11] = PBMC + LPS(5 ug/ml) + test article 500 nM, Mean
# [12] = PBMC + LPS(5 ug/ml) + test article 500 nM, single replicates
Compound,CCL3/MIP-1 alpha Concentration [1],CCL3/MIP-1 alpha MFI [1],CCL3/MIP-1 alpha Concentration [2],CCL3/MIP-1 alpha MFI [2],CCL3/MIP-1 alpha Concentration [3],CCL3/MIP-1 alpha MFI [3],CCL3/MIP-1 alpha Concentration [4],CCL3/MIP-1 alpha MFI [4],CCL3/MIP-1 alpha Concentration [5],CCL3/MIP-1 alpha MFI [5],CCL3/MIP-1 alpha Concentration [6],CCL3/MIP-1 alpha MFI [6],CCL3/MIP-1 alpha Concentration [7],CCL3/MIP-1 alpha MFI [7],CCL3/MIP-1 alpha Concentration [8],CCL3/MIP-1 alpha MFI [8],CCL3/MIP-1 alpha Concentration [9],CCL3/MIP-1 alpha MFI [9],CCL3/MIP-1 alpha Concentration [10],CCL3/MIP-1 alpha MFI [10],other results
CC(C)C[C@H](NC(=O)CNC(=O)[C@H](CC(C)C)NC(=O)[C@H](CCC(N)=O)NC(=O)CNC(=O)[C@@H]1C[C@@H](O)CN1)C(=O)N[C@@H](C)C(=O)NCC(=O)N1CCC[C@H]1C(=O)N[C@@H](CCCCN)C(=O)O [YDE-011] (H-[Hyp]GQLGLAGPK-OH),30631.2 pg/mL,40.8,31818.4 pg/mL and 28790.7 pg/mL and 31284.6 pg/mL,43.0 and 37.5 and 42.0,34293.4 pg/mL,47.8,34390.9 pg/mL and 32865.8 pg/mL and 35623.4 pg/mL,48.0 and 45.0 and 50.5,30465.1 pg/mL,40.5,31284.6 pg/mL and 29639.8 pg/mL and 30470.7 pg/mL,42.0 and 39.0 and 40.5,27362.3 pg/mL,35.2,25497.0 pg/mL and 26119.3 pg/mL and 30470.7 pg/mL,32.0 and 33.0 and 40.5,28334.6 pg/mL,37.3,32865.8 pg/mL and 21122.8 pg/mL and 31015.1 pg/mL,45.0 and 25.5 and 41.5,CCL3/MIP-1 alpha Concentration [11]: 27851.5 pg/mL; CCL3/MIP-1 alpha MFI [11]: 36.8; CCL3/MIP-1 alpha Concentration [12]: 34390.9 pg/mL and 19244.9 pg/mL and 29918.7 pg/mL; CCL3/MIP-1 alpha MFI [12]: 48.0 and 23.0 and 39.5; LPS-induced CCL-3 (in words): significantly reduced
CC(C)C[C@H](NC(=O)[C@H](CCC(N)=O)NC(=O)CNC(=O)[C@@H]1C[C@@H](O)CN1)C(=O)NCC(=O)O [YDE-043] (H-[Hyp]GQLG-OH; N-terminus and C-terminus assumed),38526.9 pg/mL,57.3,32345.4 pg/mL and 37296.1 pg/mL and 45939.1 pg/mL,44.0 and 54.0 and 74.0,29535.1 pg/mL,38.8,28213.9 pg/ml and 30195.7 pg/ml (2×),36.5 and 40.0 (2×),30000.1 pg/mL,39.7,29639.8 pg/mL and 31284.6 pg/mL and 29075.9 pg/mL,39.0 and 42.0 and 38.0,31809.4 pg/mL,43.0,31818.4 pg/mL and 32865.8 pg/mL and 30743.9 pg/mL,43.0 and 45.0 and 41.0,31754.6 pg/mL,43.0,33380.1 pg/ml (2×) and 28503.4 pg/ml,46.0 (2×) and 37.0,CCL3/MIP-1 alpha Concentration [11]: 28096.2 pg/mL; CCL3/MIP-1 alpha MFI [11]: 36.3; CCL3/MIP-1 alpha Concentration [12]: 28503.4 pg/mL and 26426.3 pg/mL and 29358.9 pg/mL; CCL3/MIP-1 alpha MFI [12]: 37.0 and 33.5 and 38.5; LPS-induced CCL-3 (in words): significantly reduced

# — US20230146455A1, “TREATMENT OF INFLAMMATORY DISEASES WITH PEPTIDES AND PHARMACEUTICAL COMPOSITIONS” (Yuyu Pharma, Inc., priority 2020, published 2023)
